According to patent publication US20230272392A1, “METHODS OF TFEB ACTIVATION AND LYSOSOMAL BIOGENESIS AND COMPOSITIONS THEREFOR” (Casma Therapeutics, Inc., priority 2020, published 2023):

Assays:
[1] = test system: U2OS cells expressing mKeima, FRB-p62, and FKBP-FIS1; test: Mitophagy efficiency, Keima fluorescence shift assay in U2OS cells; type: cell-based; conditions: dimerizer-induced mitophagy; FIG. 49
[2] = test system: LC3; test: LC3 lipidation (LC3-I to LC3-II conversion), Western blot and cell images; type: cell-based; conditions: for LC3 lipidation (conversion of LC3 "I" form to "II" form): wild type (WT) and autophagy-deficient cells, FIGS. 1, 2, 3
Source text: (§1) For preparation of total cell lysates, cells were lysed in RIPA buffer (#9806, Cell Signaling Technology) supplemented with sodium dodecyl sulfate to 1% final concentration (SDS, Boston BioProducts) and protease inhibitor tablets (Complete EDTA-free, Roche). Lysates were homogenized by sequential passaging through Qiashredder columns (Qiagen), and protein levels were quantified by Lowry DC protein assay (Bio-Rad). Proteins were denatured in 6×Laemmli SDS loading buffer (Boston BioProducts) at 100° C. for 5 minutes.
(§2) Equivalent amounts of total proteins were separated on Tris-Glycine TGx SDS-PAGE gels (Bio-Rad) for Western blotting. Proteins were transferred to nitrocellulose using standard methods and membranes were blocked in 5% non-fat dry milk (Cell Signaling Technology) in TBS with 0.2% Tween-20 (Boston BioProducts). Primary antibodies were diluted in 5% bovine serum albumin (BSA, Cell Signaling Technology) in TBS with 0.2% Tween-20 and were incubated with membranes at 4° C. overnight. HRP-conjugated secondary antibodies were diluted in blocking solution (1:20,000, ThermoFisher) and incubated with membranes at room temperature for 1 hour. Western blots were developed using West PicoPLUS Super Signal ECL reagents (Pierce) and film (GEHealthcare).

[3] = test system: LC3; test: LC3 puncta co-localized with LAMP1 in primary bone marrow-derived macrophages, wild-type vs ATG16L1 K490A knock-in; type: cell-based, mouse; conditions: FIG. 12
Procedure: For LC3 and LAMP1 staining in primary BMDMs, cells were plated on 18 mm coverslips. The next day, cells were treated as indicated and cells were fixed in ice cold methanol as described above. Cells were then blocked in PBS+5% BSA for 1 hour before addition of primary antibodies (anti-LC3A/B, CST #4108, 1:100; anti-LAMP1, BD #555798, 1:100) and diluted in blocking buffer overnight at 4° C. Cells were then washed and incubated with fluorescent secondary antibodies in blocking buffer for 1 hour at room temperature. Cells were washed in PBS incubated with DAPI and mounted on glass slides using Prolong anti-fade reagent (Life Technologies).
The K490A point mutation was introduced into C57/BL6 mice via direct zygote injection of CRISPR/Cas9 reagents. Briefly, a single stranded guide sequence was designed and synthesized along with a tracrRNA from Dhamacon. A repair donor single stranded DNA sequence was designed to introduce the K490A point mutation and mutate the PAM sequence to stop re-targeting of the Cas9 complex to already edited DNA. These reagents, along with recombinant Cas9, were injected into mouse zygotes. Pups born from these injections were genotyped via Transnetyx and heterozogous founders were bred with wild-type mice to obtain pure heterozygote animals. Further breeding yielded mice homozygous for the K490A mutation. […]

[4] = test system: TFEB; test: TFEB activation (Western blot / nuclear accumulation) in cell lines; type: cell-based; conditions: for TFEB activation under co-treatment with BafA1: FIG. 16
Source text: as §1, §2
(§3) For high content image acquisition, cells were plated in 96-well glass bottom, black wall plates (Greiner, #655892) or 384-well polystyrene, black-wall plates (Greiner, #781091) and grown overnight to 70% confluency. Treatments were performed as indicated. Cells were fixed for 10 minutes in either −20° C. methanol or 4% paraformaldehyde (Electron Microscopy Sciences). Cells were blocked and permeabilized in a solution containing 1:1 Odyssey blocking buffer (LiCor)/PBS (Invitrogen) with 0.1% Triton X-100 (Sigma) and 1% normal goat serum (Invitrogen) for 1 hour at room temperature. Primary antibodies were added overnight at 4° C. in blocking buffer described above. After washing plates with PBS using an EL-406 plate washer (BioTek), secondary Alexa-conjugated antibodies (Life Technologies) were diluted 1:1,000 in blocking solution and applied for 1 hour at room temperature. Cells were then washed again in PBS as described and imaged using an INCELL 6500 high-content imager (GE Healthcare). Images were analyzed using the GE InCarta software.

[5] = test system: TFEB; test: TFEB activation in ATG16L1 KO mouse macrophages reconstituted with ATG16L1 WD40 point mutants; type: cell-based; conditions: immortalized ATG16L1 KO mouse macrophages; FIG. 21
Procedure: For endogenous TFEB staining in mouse macrophages, cells were fixed in 3.7% formaldehyde for 15 minutes at room temperature, washed in PBS and permeabilized in 0.2% triton/PBS for 5 minutes. Cells were then processed as above for primary (anti-TFEB, Bethyl Laboratories, #A303-673A, 1:200) and secondary antibodies. Images were acquired using a Confocal Zeiss LSM 780 microscope (Carl Zeiss Ltd) equipped with a 40×oil immersion 1.40 numerical aperture (NA) objective using Zen software (Carl Zeiss Ltd). Analysis was performed using Image J. For nuclear cytosol quantification, the ratio of fluorescent intensity of TFEB within the DAPI was mask versus the cytosol of 30 cells across 2 independent experiments were measured.

[6] = test system: GPNMB; test: GPNMB protein levels (TFEB target gene) upon chronic treatment, Western blot; type: cell-based; conditions: FNIP1/2 DKO cells reconstituted with FNIP1; FIG. 44D
Source text: as §2, with “For preparation of total cell lysates, cells were lysed in RIPA buffer (#9806, Cell Signaling Technology) supplemented with sodium dodecyl sulfate to 1% final concentration (SDS, Boston BioProducts) and protease inhibitor tablets (Complete EDTA-free, Roche). Lysates were homogenized by sequential passaging through Qiashredder columns (Qiagen), and protein levels were quantified by Lowry DC protein assay (Bio-Rad). Proteins were denatured in 6×Laemmli SDS loading buffer (Boston BioProducts) at 100° C. for 5 minutes. Equivalent” for “Equivalent”

[7] = test system: TFE3 and FLCN; test: TFE3 and FLCN subcellular localization upon dimerizer-induced mitophagy in U2OS cells; type: cell-based; conditions: 25 nM, 3 hours; control KO, RB1CC1 KO, GABARAP triple KO U2OS cells; FIG. 50
Procedure: as §3

Row | SMILES | LC3 lipidation (conversion of LC3 "I" form to "II" form) [2] | LC3 puncta formation co-localized with LAMP1, wild-type vs ATG16L1^K490A cells [3] | TFEB activation under co-treatment with BafA1 [4] | TFEB activation in macrophages with ATG16L1-F467A or ATG16L1-K490A [5] | other results
1 | CO/C1=C\C(C)=C\[C@@H](C)[C@@H](O)[C@@H](C)C/C(C)=C/C=C/[C@H](OC)[C@@H]([C@@H](C)[C@@H](O)[C@H](C)[C@@]2(O)C[C@@H](O)[C@H](C)[C@@H](C(C)C)O2)OC1=O [BafA1, Bafilomycin A1] |  |  |  |  | Keima signal (mitophagy) under co-treatment [1]: blocked the Keima signal
2 | COc1ccc(-c2ccc3c(N4CCOC[C@@H]4C)nc(N4CCOC[C@@H]4C)nc3n2)cc1CO [AZD8055] | able to regulate LC3 lipidation in WT but not autophagy-deficient cells | sensitivity to the ATG16L1^K490A mutation was not observed | did not prevent TFEB activation | activated TFEB irrespective of ATG16L1 status | LC3 lipidation: dependence on VPS34 inhibition and Bafilomycin A1 co-treatment ([2]; FIG. 4): induced conversion of LC3 in a manner sensitive to VPS34 inhibition and was potentiated with the vATPase inhibitor Bafilomycin A1 (BafA1); TFEB activation (with GPNMB readout) ([4]; FIG. 44D): robust TFEB activation; TFEB nuclear accumulation / activation with SopF expression ([4]; SopF expression vs SopF negative controls, FIG. 15): did not impact TFEB activation; GPNMB protein levels [6]: largely suppressed
3 | CC1CC(C)(C)N(C(=O)CN2C(=O)c3ccccc3C2=O)c2ccccc21 (stereo not drawn) [ML-SA1] | rapid conversion of LC3 from its cytoplasmic “I” form to the lipidated, punctate “II” form in both wild type (WT) and autophagy-deficient cells | did not occur in ATG16L1^K490A cells |  | did not exhibit TFEB activation | 
4 | CO[C@H]1[C@@H](O)[C@H](C)C[C@H](C)/C=C/C=C/C=C(\C)[C@@H](c2c[nH]c3c(C)cccc23)C[C@@H]2CC[C@@H](C)[C@@](O)(O2)C(=O)C(=O)N2CCCC[C@H]2C(=O)O[C@H]([C@H](C)C[C@@H]2CC[C@@H](O)[C@H](OC)C2)C[C@H](O)[C@H](C)/C=C(\C)[C@H]1O [AP21967] |  |  |  |  | TFE3 nuclear localization and FLCN punctate structures [7]: seen in CTRL and RBICC1_KO (autophagy-deficient) cells but not in GABARAP_TKO cells
5 | Cc1ccc(S(=O)(=O)Nc2ccccc2N2CCCCC2)s1 [MK6-83] | rapid conversion of LC3 from its cytoplasmic “I” form to the lipidated, punctate “II” form in both wild type (WT) and autophagy-deficient cells |  | prevented |  | 
